Data reported in patent publication US8022207B2, “Compound having affinity to amyloid” (Nihon Medi-Physics Co., Ltd., priority 2006, dated 2011).
Read-outs that look alike come from different tables or passages of the source. Values belong to the molecule of their own block, whether it stands above or below them.

Key:
[1] = tested on: Salmonella typhimurium TA98 and TA100; assay: Reverse mutation test (Ames test), overall judgment; assay type: cell-based; conditions: TA98 and TA100, regardless of addition of S9mix
Description: (§1) In order to examine mutagenicity of Compounds 1, 2 and 4, reverse mutation test using Salmonella typhimurium TA98 and TA100 (hereinafter referred to as Ames test) was conducted.
(§2) The test was conducted without addition of S9mix and with addition of S9mix. Dimethylsulfoxide was used as a negative control. A positive control was 2-(2-furyl)-3-(5-nitro-2-furyl)acrylamide in case S9mix was not added, and 2-aminoanthracene in case S9 mix was added.
(§3) The amount of each sample to be added to the test plate was 7 dosages (geometric ratio 4) with the maximum dose being 5000 μg/plate. After a sample to be examined and a strain (TA98 or TA100), or a sample to be examined, S9mix and the strain were mixed together, the mixture was multilayered using soft agar on a medium of a test plate, and then incubated at 37° C. for 48 hours.
(§4) In order to examine mutagenicity of Compound 8, reverse mutation test using Salmonella typhimurium TA98 and TA100 (hereinafter referred to as Ames test) was conducted.
(§5) The test was conducted without addition of S9mix and with addition of S9mix. Dimethylsulfoxide was used as a negative control. A positive control was 2-(2-furyl)-3-(5-nitro-2-furyl)acrylamide in case S9mix was not added, and 2-aminoanthracene in case S9mix was added.
as §3, with “Compound 8” for “each sample”, “3)” for “4)”, “Compound 8” for “a sample to be examined”, “Compound 8,” for “a sample to be examined,”

[2] = tested on: Salmonella typhimurium TA100; assay: Reverse mutation test (Ames test), TA100; assay type: cell-based; conditions: maximum 5000 μg/plate
Description: as §1, §2, §3, §4, §5
as §3, with “Compound 8” for “each sample”, “3)” for “4)”, “Compound 8” for “a sample to be examined”, “Compound 8,” for “a sample to be examined,”

[3] = tested on: Salmonella typhimurium TA98; assay: Reverse mutation test (Ames test), TA98; assay type: cell-based; conditions: maximum 5000 μg/plate
Description: as §1, §2, §3, §4, §5
as §3, with “Compound 8” for “each sample”, “3)” for “4)”, “Compound 8” for “a sample to be examined”, “Compound 8,” for “a sample to be examined,”

[4] = Partition coefficient based on the octanol extraction method (logPoctanol); assay type: physicochemical; conditions: octanol / 10 mmol/L phosphate buffer (pH 7.4), radioactivity count
Description: Using the obtained radioactivity count, logPoctanol was calculated in accordance with the equation (2).

[5] = Transferability into brain and clearance (Example I-16, Comparative Example I-7); conditions: brain, rats, intravenous injection
Description: Using Compound 6, a time course change of radioactive accumulation in brain of male Wistar rats (7-week old) was measured.
Also, radioactivity (hereinafter referred to as B in this Example) of 0.05 mL of a 1000-fold diluted solution of the injected solution was measured in the same manner as above. Using these measurement results, radioactive accumulation per unit weight of brain (% ID/g) at the respective time points was calculated in accordance with the following formula (5).

[6] = target: intracerebral amyloid (aggregated Aβ1-40 injected into amygdaloid nucleus) (Homo sapiens, UniProt P05067); conditions: rat, Aβ1-40 amyloid suspension in amygdaloid nucleus, brain removed 60 minutes after tail vein injection
Description: The following experiment was carried out in order to examine whether amyloid in brain can be imaged by the compound of the present invention.
The rats were examined 1 day after the injection of the amyloid suspension and the phosphate buffered physiological saline solution (pH 7.4).
(§6) (4) Brain was removed 60 minutes after the injection to prepare a brain slice of 10 μm in thickness with a microtome (type: CM3050S, manufactured by LEICA). The brain slice was exposed to an imaging plate for 20 hours, and then image analysis was carried out by use of a Bio-imaging Analyzer (type: BAS-2500; manufactured by FUJIFILM Corporation).

[7] = target: T1, intracerebral amyloid (aggregated Aβ1-42 injected into amygdaloid nucleus) (Homo sapiens, UniProt P05067); assay: Ex vivo autoradiogram using rats of amyloid injected model (aggregated Aβ1-42); set-up: species or system male Wistar rat; conditions: rat, Aβ1-42 amyloid suspension in amygdaloid nucleus, brain removed 60 minutes after tail vein injection
T1 construct: Aβ1-42 (manufactured by Peptide Institute, Inc.) was dissolved in phosphate buffer (pH 7.4); purchased Peptide Institute, Inc
Description: As a control, 2.5 μL of a phosphate buffered physiological saline solution (pH 7.4) was injected into an amygdaloid nucleus on the other side of the rat. The rats were examined 1 day after the injection of the amyloid suspension and the phosphate buffered physiological saline solution (pH 7.4).
as §6

[8] = Transferability into brain and clearance (Example II-11, II-12, Comparative Example II-1); assay type: in vivo, male Wistar rats; conditions: brain, rats, intravenous injection
Description: The rats were sacrificed by bleeding from abdominal artery, and brains were removed and subjected to measurement of mass of brains and further subjected to measurement of radioactivity (hereinafter referred to as A in this Example) with a single channel analyzer (detector type: SP-20 manufactured by OHYO KOKEN KOGYO Co., Ltd.) 2, 5, 30 and 60 minutes after the injection. Also, radioactivity (hereinafter referred to as B in this Example) of the rest of the whole body was measured in the same manner as above. Using these measurement results, radioactive accumulation per unit weight of brain (% ID/g) at the respective time points were calculated in accordance with the following formula (6).
Three animals were used for experiment at the respective time points.

[9] = International Publication WO03/106439 pamphlet; cited from earlier work
[10] = [^125I]-labeled, normal mice, brain; cited from earlier work
[11] = [^125I]-labeled compounds; cited from earlier work
[12] = [^11C]-labeled, rats; cited from earlier work

T1 sequence (P05067 672-713): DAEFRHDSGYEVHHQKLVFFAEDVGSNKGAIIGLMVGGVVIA
Chain of intracerebral amyloid (aggregated Aβ1-40 injected into amygdaloid nucleus) (P05067 672-711): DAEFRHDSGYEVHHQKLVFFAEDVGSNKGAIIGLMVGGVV

SMILES: Oc1ccc(-c2cn3cc(Br)ccc3n2)cc1 [Compound 1, 6-bromo-2-(4′-hydroxyphenyl)imidazo[1,2-a]pyridine]
- Judgment in the Ames test (mutagenicity) [1]: negative
- Mutagenicity, With addition of S9mix, TA100 ([2]; 7 dosages (geometric ratio 4)): Negative
- Mutagenicity, Without addition of S9mix, TA100 ([2]; 7 dosages (geometric ratio 4)): Negative
- Mutagenicity, With addition of S9mix, TA98 ([3]; 7 dosages (geometric ratio 4)): Negative
- Mutagenicity, Without addition of S9mix, TA98 ([3]; 7 dosages (geometric ratio 4)): Negative

SMILES: Oc1ccc(-c2cn3cc(I)ccc3n2)cc1 [Compound 2, 2-(4′-hydroxyphenyl)-6-iodoimidazo[1,2-a]pyridine]
- Judgment in the Ames test (mutagenicity) [1]: negative
- Mutagenicity, With addition of S9mix, TA100 ([2]; 7 dosages (geometric ratio 4)): Negative
- Mutagenicity, Without addition of S9mix, TA100 ([2]; 7 dosages (geometric ratio 4)): Negative
- Mutagenicity, With addition of S9mix, TA98 ([3]; 7 dosages (geometric ratio 4)): Negative
- Mutagenicity, Without addition of S9mix, TA98 ([3]; 7 dosages (geometric ratio 4)): Negative

SMILES: Oc1ccc(-c2cn3cc(I)cnc3n2)cc1 [Compound 4, 2-(4′-hydroxyphenyl)-6-iodoimidazo[1,2-a]pyrimidine]
- Judgment in the Ames test (mutagenicity) [1]: negative
- Mutagenicity, With addition of S9mix, TA100 ([2]; 7 dosages (geometric ratio 4)): Negative
- Mutagenicity, Without addition of S9mix, TA100 ([2]; 7 dosages (geometric ratio 4)): Negative
- Mutagenicity, With addition of S9mix, TA98 ([3]; 7 dosages (geometric ratio 4)): Negative
- Mutagenicity, Without addition of S9mix, TA98 ([3]; 7 dosages (geometric ratio 4)): Negative

SMILES: Oc1ccc(-c2cn3cc([125I])ccc3n2)cc1 [Compound 5, [^125I]-2-(4′-hydroxyphenyl)-6-iodoimidazo[1,2-a]pyridine]
- logPoctanol value [4]: 1.6

SMILES: Oc1ccc(-c2cn3cc([123I])ccc3n2)cc1 [Compound 6, [^123I]-2-(4′-hydroxyphenyl)-6-iodoimidazo[1,2-a]pyridine]
- Radioactive accumulation per unit weight, After 2 min. [5]: 0.96 % ID/g
- Radioactive accumulation per unit weight, After 5 min. [5]: 0.69 % ID/g
- Radioactive accumulation per unit weight, After 30 min. [5]: 0.16 % ID/g
- Radioactive accumulation per unit weight, After 60 min. [5]: 0.04 % ID/g
- Accumulation of radioactivity on intracerebral amyloid (autoradiogram of brain slice) [6]: possesses a property of accumulating on intracerebral amyloid

SMILES: Oc1ccc(-c2cn3cc(I)ncc3n2)cc1 [Compound 8, 2-(4′-hydroxyphenyl)-6-iodoimidazo[1,2-a]pyrazine]
- Judgment in the Ames test (mutagenicity) [1]: negative
- Mutagenicity, With addition of S9mix, TA100 ([2]; 7 dosages (geometric ratio 3)): Negative
- Mutagenicity, Without addition of S9mix, TA100 ([2]; 7 dosages (geometric ratio 3)): Negative
- Mutagenicity, With addition of S9mix, TA98 ([3]; 7 dosages (geometric ratio 3)): Negative
- Mutagenicity, Without addition of S9mix, TA98 ([3]; 7 dosages (geometric ratio 3)): Negative

- logPoctanol value [4]: 1.7
SMILES: Oc1ccc(-c2cn3cc([123I])cnc3n2)cc1 [Compound 9, [^123I]-2-(4′-hydroxyphenyl)-6-iodoimidazo[1,2-a]pyrimidine]

- logPoctanol value [4]: 2.3
- Accumulation of radioactivity in the amygdaloid nucleus on the amyloid-injected side (autoradiogram of brain slice) [7]: marked accumulation of radioactivity
- Radioactive accumulation per unit weight, After 2 min. [8]: 0.62 % ID/g
- Radioactive accumulation per unit weight, After 5 min. [8]: 0.33 % ID/g
- Radioactive accumulation per unit weight, After 30 min. [8]: 0.08 % ID/g
- Radioactive accumulation per unit weight, After 60 min. [8]: 0.02 % ID/g
SMILES: Oc1ccc(-c2cn3cc([123I])ncc3n2)cc1 [Compound 10, [^123I]-2-(4′-hydroxyphenyl)-6-iodoimidazo[1,2-a]pyrazine]

- logPoctanol value [4]: 3.0
- Accumulation of radioactivity in the amygdaloid nucleus on the amyloid-injected side (autoradiogram of brain slice) [7]: marked accumulation of radioactivity
- Radioactive accumulation per unit weight, After 2 min. [8]: 0.65 % ID/g
- Radioactive accumulation per unit weight, After 5 min. [8]: 0.43 % ID/g
- Radioactive accumulation per unit weight, After 30 min. [8]: 0.09 % ID/g
- Radioactive accumulation per unit weight, After 60 min. [8]: 0.03 % ID/g
SMILES: Oc1ccc(-c2cn3cccc([123I])c3n2)cc1 [Compound 11, [^123I]-2-(4′-hydroxyphenyl)-8-iodoimidazo[1,2-a]pyridine]

SMILES: CC(=C(C#N)C#N)c1ccc2cc(N(C)CCF)ccc2c1 [FDDNP, 2-(1-{6-[(2-fluoroethyl)(methyl)amino]-2-naphthyl}ethylidene)malononitrile]
- Reverse mutation test result [9]: positive

SMILES: CN(C)c1ccc(-c2nc3ccc(I)cc3o2)cc1 [IBOX, 6-iodo-2-[4′-(N,N-dimethylamino)phenyl]benzoxazole]
- Clearance from normal tissues [10]: insufficient in clearance from normal tissues

SMILES: CN(C)c1ccc(-c2cn3cc(I)ccc3n2)cc1 [IMPY, 6-iodo-2-[4′-(N,N-dimethylamino)phenyl]imidazo[1,2-a]pyridine]
- Clearance from normal tissues [11]: rapid clearance from normal tissues
- Reverse mutation test result [9]: positive

SMILES: CNc1ccc(/C=C/c2ccc(O)cc2)cc1 [SB-13, (E)-4-methylamino-4′-hydroxystilbene]
- Clearance from normal tissues [12]: it cannot be said that the clearance is sufficiently fast

SMILES: CN(C)c1ccc(-c2nc3ccc(I)cc3s2)cc1 [TZDM, 6-iodo-2-[4′-(N,N-dimethylamino)phenyl]benzothiazole]
- Clearance from normal tissues [10]: insufficient in clearance from normal tissues

SMILES: CN(C)c1ccc(-c2cn3cc([125I])ccc3n2)cc1 [[^125I]-IMPY, reference compound]
- logPoctanol value [4]: 2.1

SMILES: CN(C)c1ccc(-c2cn3cc([123I])ccc3n2)cc1 [^123I-IMPY, reference compound]
- Radioactive accumulation per unit weight, After 2 min. [5]: 1.02 % ID/g
- Radioactive accumulation per unit weight, After 5 min. [5]: 0.99 % ID/g
- Radioactive accumulation per unit weight, After 30 min. [5]: 0.20 % ID/g
- Radioactive accumulation per unit weight, After 60 min. [5]: 0.08 % ID/g
- Radioactive accumulation per unit weight, After 2 min. [8]: 1.19 % ID/g
- Radioactive accumulation per unit weight, After 5 min. [8]: 0.97 % ID/g
- Radioactive accumulation per unit weight, After 30 min. [8]: 0.23 % ID/g
- Radioactive accumulation per unit weight, After 60 min. [8]: 0.09 % ID/g

SMILES: CN(C)c1ccc(/C=C/c2ccc(I)cc2)cc1 [m-I-SB, (E)-4-dimethylamino-4′-iodostilbene]
- Clearance from normal tissues [10]: insufficient in clearance from normal tissues
